Measurements published in patent US4097582A, “6',2-(2'-Arylchromonyl) propionic acids, and analgesic and anti-inflammatory derivatives thereof” (Lipha, Lyonnaise Industrielle Pharmaceutique, priority 1974, dated 1978).
Structures can show the parent of a compound that is named as a salt. Where two headings read alike, the source gives them in different places.

How the values were obtained:
[1] = tested on: carrageenin-induced oedema; experiment: carrageenin-induced oedema test upon rats, anti-inflammatory effect (Winter et al.); format: in vivo; conditions: Rattus norvegicus, phenylbutazone control, read-out: Carrageenin (A.D. 30, mg/kg)
Method: (§1) The pharmacological, analgesic and anti-inflammatory effectiveness and the slightly ulcerating effect of the propionic acids and their functional derivatives was determined by various methods. The compounds are identified by the numbers of the examples.
The anti-inflammatory effect of the compounds claimed was established, inter alia, by the carrageenin-induced oedema test upon rats (Winter et al. -- Proc. Soc. Exp. Biol. Med. 1962, Vol. III, pages 544 and 547). The results obtained with certain of the compounds of the invention are given below in Table II (phenylbutazone was used as a control).

acetic test upon mice = experiment: acetic test upon mice, analgesic effect (Siegmund method as modified by Koster, Anderson and Debeer); format: in vivo; conditions: Mus musculus
Text: The compounds are identified by the numbers of the examples.

[2] = recently discovered; cited from earlier work
ulcers = experiment: aggravation of ulcers already caused in rats (Shay et al.), ulcerating effect; format: in vivo
Method: as §1
The compounds were compared with phenylbutazone in order to evaluate their ulcerating effect. The method used was that of aggravating ulcers which has already been caused in rats by the procedure described by Shay et al (Gastroenterology, 1945, Vol. 5, pages 43 to 61).

[3] = observations made during clinical trials; format: in vivo, human (patients: Mrs. / Mr.)
Method: Pharmaceutical compositions comprising a compound of the invention as their active ingredient and a physiologically acceptable, solid or liquid pharmaceutical excipient or diluent enable the active ingredient to be administered in daily doses of from 20 to 1000 mg. Among the observations made during clinical trials with the compound of Example 13 the following may be mentioned:
Among the observations made during clinical trials of the compound of Example 22 may be mentioned the following five: […]

[4] = mice, acetic test, aspirin control, read-out: ED50
[5] = A person, inflammation of arteries in lower limbs, four 150 mg tablets per day, five days
[6] = A person, lumbar arthrosis, six 150 mg tablets per day, 10 days
[7] = A person, removal of left knee-cap, six 150 mg tablets per day, 5 days
[8] = A person, very intense lumbar pain, four 150 mg tablets per day, ten days
[9] = A person, cervical pain from arthritic spine, four 100 mg tablets per day, 8 days
[10] = A person, pseudoarthrosis of the knee, five 100 mg tablets per day, 8 days
[11] = A person, stripping of varicose veins, six 100 mg tablets per day, 5 days
[12] = person one, sciatica, four 100 mg tablets per day, 10 days
[13] = person two, post-fracture gonarthrosis, four 100 mg tablets per day, 10 days

For CCCOC(=O)C(C)c1ccc2oc(-c3ccccc3)cc(=O)c2c1 (stereo not shown) [Example 25, Propyl 2-(2'-phenyl-6'-chromonyl)propionate], the ED30 [1] was 85 mg/kg and the ED50 (acetic test upon mice; [4]) was 6 mg/kg.
For O=C(O)Cc1ccc2oc(-c3ccccc3)cc(=O)c2c1 [6-(2-Phenylchromonyl) acetic acid], the choleretic activity [2] is listed as “choleretic activity”.
Compound CC(C(=O)OCCN1CCOCC1)c1ccc2oc(-c3cccs3)cc(=O)c2c1 (stereo not drawn) [Example 32, The acid oxalate of β-morpholinoethyl-2-[2'-(α-thienyl)-6'-chromonyl]propionate] has an ED50 (acetic test upon mice; [4]) of 4.6 mg/kg.
For CC(=O)Oc1ccccc1C(=O)O [Aspirin, reference compound], the ED50 (acetic test upon mice) was 130 mg/kg.
For CC(C(=O)O)c1ccc2oc(-c3ccccc3)cc(=O)c2c1 (stereo not shown) [Example 22, 2-(6'-Flavonyl)propionic acid], the “Aggravation of ulceration, Coefficient” value (ulcers; dose 300 mg/kg body weight/PO) was 60, the ED30 [1] was 65 mg/kg and the ED50 (acetic test upon mice; [4]) was 9 mg/kg. For the same compound, the duration of relief [3, 5] was “more than three”, the relief [3, 5] was “very distinct relief” and the “time after administration until relief” value [3, 5] was “less than 30 minutes”. For the same compound, the duration of relief [3, 6] was “three”, the functional improvement [3, 6] was “appreciable functional improvement” and the “time after administration until relief” value [3, 6] was “thirty”. For the same compound, the “results against pain and signs of inflammation” value ([3]; A person, pain in neck and arm, four 150 mg tablets per day, eight days) was “very good”, the duration of relief [3, 7] was greater than 3 h and the relief [3, 7] was “complete”. For the same compound, the “time until relief appears” value [3, 7] was “less than 30 minutes”, the antalgic effect [3, 8] was “excellent” and the “distance which the patient could move their fingertips towards the ground” value [3, 8] was “from 40 to 5”. The improvement [3, 8] was “very pronounced improvement”, the tolerance ([3]; A person, four 150 mg tablets per day, eight days) was “complete” and the tolerance ([3]; A person, four 150 mg tablets per day, five days) was “satisfactory”. For the same compound, the tolerance ([3]; A person, four 150 mg tablets per day, ten days) was “complete”, the tolerance ([3]; A person, six 150 mg tablets per day, 5 days) was “good” and the tolerance ([3]; A person, six 150 mg tablets per day, 10 days) was “complete”.
For CCCCC1C(=O)N(c2ccccc2)N(c2ccccc2)C1=O [Phenylbutazone, reference compound], the “Aggravation of ulceration, Coefficient” value (ulcers; dose 200 mg/kg body weight/PO) was 100 and the ED30 [1] was 50 mg/kg.
With COC(=O)C(C)c1ccc2oc(-c3cccs3)cc(=O)c2c1 (stereo not drawn) [Example 29, Methyl 2-[2'-(α-thienyl)-6'-chromonyl]propionate] the ED30 [1] was 37 mg/kg and the ED50 (acetic test upon mice; [4]) was 2.3 mg/kg.
With CC(C(=O)O)c1ccc2oc(-c3cccs3)cc(=O)c2c1 (stereo not drawn) [Example 13, 2-[2'-(α-Thienyl)-6'-chromonyl]propionic acid] the “Aggravation of ulceration, Coefficient” value (ulcers; dose 300 mg/kg body weight/PO) was 50, the ED30 [1] was 10 mg/kg and the ED50 (acetic test upon mice; [4]) was 1.5 mg/kg. For the same compound, the analgesic effect [3, 9] was “good”, the “movement in the neck” value [3, 9] was “restored movement to normal amplitude in the neck unaccompanied by pain” and the antiinflammatory effect [3, 10] was “very good”. For the same compound, the “duration of relief of pain” value [3, 10] was “three”, the relief of pain [3, 10] was “good” and the duration of relief [3, 11] was 3 h. For the same compound, the relief [3, 11] was “complete”, the “time after administration until relief apparent” value [3, 11] was “less than 30 minutes” and the tolerance ([3]; A person, five 100 mg tablets per day, 8 days) was “perfect”. The tolerance ([3]; A person, four 100 mg tablets per day, 8 days) was “very good”, the tolerance ([3]; A person, six 100 mg tablets per day, 5 days) was “very good” and the analgesic effect [3, 12] was “excellent”. The “improvement in the results of the Lasegue test” value [3, 12] was “from 45 to 75”, the tolerance ([3]; person one, four 100 mg tablets per day, 10 days) was “complete” and the analgesic effect [3, 13] was “very positive”. The knee flexion improvement [3, 13] was “from 15 to 25”, the “results on the knee” value [3, 13] was “excellent” and the “temperature of the knee” value [3, 13] was “returned to its normal temperature”. For the same compound, the tolerance ([3]; person two, four 100 mg tablets per day, 10 days) was “good”.
